Experimental data taken from ChEMBL document CHEMBL1146775 (2004).
Active and inactive are the calls of the source.

How the values were obtained:
[1] = Maximal rate of vascular endothelium-dependent relaxation at the concentration of 10E-5 M/L; […]; settings: Oryctolagus cuniculus
[2] = molecular target: Muscarinic acetylcholine receptor M3 (Cavia porcellus) (UniProt Q8VH26); settings: Ileum
[3] = Maximal rate of vascular endothelium-dependent relaxation at the concentration of 10E-5 M/L; 30-50%; settings: Oryctolagus cuniculus
[4] = species on record: Rattus norvegicus; experiment: Rate of relaxation of Indomethacin treated rat aorta; assay type: functional
[5] = species on record: Rattus norvegicus; experiment: Rate of relaxation of endothelium intact rat aorta; assay type: functional
[6] = Maximal rate of vascular endothelium-dependent relaxation at the concentration of 10E-5 M/L; settings: Oryctolagus cuniculus
[7] = species on record: Rattus norvegicus; experiment: Rate of relaxation of endothelium denuded rat aorta; assay type: functional
[8] = species on record: Rattus norvegicus; experiment: Rate of relaxation of L-NAME treated rat aorta; assay type: functional
[9] = species on record: Rattus norvegicus; experiment: Rate of relaxation of Atropine treated rat aorta; assay type: functional
[10] = Maximal rate of vascular endothelium-dependent relaxation at the concentration of 10E-5 M/L; 0-10%; settings: Oryctolagus cuniculus
[11] = Maximal rate of vascular endothelium-dependent relaxation at the concentration of 10E-5 M/L; - = no activity; settings: Oryctolagus cuniculus
[12] = test system: Oryctolagus cuniculus; experiment: Vascular relaxation of rabbit carotid model at 0.1 M/L concentration with 5 mg/kg PPVP; assay type: functional
[13] = species on record: Oryctolagus cuniculus; experiment: Vascular relaxation of rabbit carotid model (high lipid diet) at 0.1 M/L concentration; assay type: functional

Chain of Muscarinic acetylcholine receptor M3 (Cavia porcellus) (Q8VH26 1-587): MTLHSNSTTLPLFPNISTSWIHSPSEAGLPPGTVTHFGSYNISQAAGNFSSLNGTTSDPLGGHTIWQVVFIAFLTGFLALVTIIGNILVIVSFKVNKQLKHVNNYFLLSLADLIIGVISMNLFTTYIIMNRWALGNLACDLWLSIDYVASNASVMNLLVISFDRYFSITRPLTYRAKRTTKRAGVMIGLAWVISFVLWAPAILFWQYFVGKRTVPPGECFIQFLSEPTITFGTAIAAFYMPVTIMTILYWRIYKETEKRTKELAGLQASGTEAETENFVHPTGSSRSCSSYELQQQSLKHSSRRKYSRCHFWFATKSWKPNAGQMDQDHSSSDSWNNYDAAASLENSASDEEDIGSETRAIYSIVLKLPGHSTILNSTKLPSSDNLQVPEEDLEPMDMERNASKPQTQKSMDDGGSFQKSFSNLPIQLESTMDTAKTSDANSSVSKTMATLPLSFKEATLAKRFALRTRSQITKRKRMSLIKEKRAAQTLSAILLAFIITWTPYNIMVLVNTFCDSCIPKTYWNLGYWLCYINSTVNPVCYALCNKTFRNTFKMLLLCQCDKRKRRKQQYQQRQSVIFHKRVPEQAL

O=C(CN1CCOCC1)Nc1c(Cl)cccc1Cl
Relaxation [1]: 30% | Contraction [2]: inactive

CN1CCN(C(C#N)c2ccccc2F)CC1 (stereo not drawn)
Contraction [2]: inactive | Relaxation [3]: 50%

CCOP(=O)(OCC)C(c1ccc(O)c(OC)c1)N1CCN(c2ccccn2)CC1.Cl (stereo not drawn)
Relaxation [4]: 23.8% | Relaxation [5]: 81.4% | Contraction [2]: inactive | Relaxation [6]: > 50% | Relaxation [7]: 13.9% | Relaxation [8]: 28.8% | Relaxation [9]: 85.7%

CN1C2CC=C(C#N)C1CC2 (stereo not drawn)
Contraction [2]: inactive | Relaxation [10]: 10%

N#CC(c1cccc(F)c1)N1CCOCC1 (stereo not drawn)
Contraction [2]: inactive | Relaxation [3]: 50%

COc1cc(C(C#N)N2CCOCC2)cc(OC)c1OC (stereo not drawn)
Contraction [2]: inactive | Relaxation [3]: 50%

CCOC(=O)CN1CCOCC1
Contraction [2]: inactive | Relaxation [10]: 10%

CCOP(=O)(OCC)C(c1ccc(O)c(OC)c1[N+](=O)[O-])N1CCN(C)CC1 (stereo not drawn)
Contraction [2]: inactive | Relaxation [10]: 10%

N#CC(c1ccc(F)cc1)N1CCOCC1 (stereo not drawn)
Relaxation [1]: 30% | Contraction [2]: inactive

Cc1cccc(C(C#N)N2CCN(C)CC2)c1 (stereo not drawn)
Contraction [2]: inactive | Relaxation [10]: 10%

N#CC(c1ccccc1Cl)N1CCOCC1 (stereo not drawn)
Contraction [2]: inactive | Relaxation [3]: 50%

CCOP(=O)(OCC)C(c1ccc(O)c(OC)c1[N+](=O)[O-])N1CCOCC1 (stereo not drawn)
Contraction [2]: inactive | Relaxation [10]: 10%

N#CC(NCc1ccccc1)c1ccc2c(c1)OCO2 (stereo not drawn)
Contraction [2]: inactive | Relaxation [10]: 10%

CN1CCN(C(C#N)c2cccc(F)c2)CC1 (stereo not drawn)
Contraction [2]: inactive | Relaxation [3]: 50%

CCOP(=O)(OCC)C(c1cc([N+](=O)[O-])ccc1O)N1CCOCC1 (stereo not drawn)
Relaxation [1]: 30% | Contraction [2]: inactive

CN1CCN(C(C#N)c2cccs2)CC1 (stereo not drawn)
Relaxation [1]: 30% | Contraction [2]: inactive

CN1CCN(C(C#N)c2c(F)cccc2Cl)CC1 (stereo not drawn)
Relaxation [1]: 30% | Contraction [2]: inactive

O/N=C1\CN2CCC1CC2
Relaxation [11]: inactive | Contraction [2]: inactive

N#CC1CC2C(=O)C=CC1N2Cc1ccccc1 (stereo not drawn)
Relaxation [11]: inactive | Contraction [2]: inactive

CN1CCN(C(C#N)c2ccc(Cl)c(F)c2)CC1 (stereo not drawn)
Relaxation [11]: inactive | Contraction [2]: inactive

CCOP(=O)(OCC)C(c1ccc(O)cc1)N1CCOCC1 (stereo not drawn)
Contraction [2]: inactive | Relaxation [10]: 10%

N#CC(c1ccc(Cl)c(F)c1)N1CCOCC1 (stereo not drawn)
Relaxation [11]: inactive | Contraction [2]: inactive

N#CC(c1cccs1)N1CCOCC1 (stereo not drawn)
Contraction [2]: inactive | Relaxation [10]: 10%

N#CCCN1CCOCC1
Relaxation [11]: inactive | Contraction [2]: inactive

CCN(CC)CCC(=O)OC
Relaxation [11]: inactive | Contraction [2]: inactive

CN1CCN(C(C#N)c2ccccc2Cl)CC1 (stereo not drawn)
Contraction [2]: inactive | Relaxation [10]: 10%

Cc1ccc(C(C#N)N2CCN(C)CC2)cc1 (stereo not drawn)
Relaxation [1]: 30% | Contraction [2]: inactive

N#CC(c1ccc2c(c1)OCO2)N1CCOCC1 (stereo not drawn)
Relaxation [1]: 30% | Contraction [2]: inactive

C#CCN1CCN(C)CC1
Relaxation [1]: 30% | Contraction [2]: inactive

COC(=O)C1CN(Cc2ccccc2)CCN1Cc1ccccc1 (stereo not drawn)
Relaxation [1]: 30% | Contraction [2]: inactive

N#CC1(O)CN2CCC1CC2 (stereo not drawn)
Relaxation [11]: inactive | Contraction [2]: inactive

COC(=O)C1CC2C(=O)C=CC1N2Cc1ccccc1 (stereo not drawn)
Contraction [2]: inactive | Relaxation [10]: 10%

CCOP(=O)(OCC)C(c1ccc(O)cc1)N1CCN(c2ccccn2)CC1 (stereo not drawn)
Contraction [2]: inactive | Relaxation [10]: 10%

CCOP(=O)(OCC)C(c1ccc(O)c(OC)c1)N1CCN(C)CC1 (stereo not drawn)
Relaxation [1]: 30% | Contraction [2]: inactive

CN1CCN(CC#N)CC1
Contraction [2]: inactive | Relaxation [3]: 50%

CN1CCN(Cc2nn[nH]n2)CC1
Relaxation [1]: 30% | Contraction [2]: inactive

COC(=O)CCN1CCCCC1
Contraction [2]: inactive | Relaxation [10]: 10%

Cc1ccccc1C(C#N)N1CCOCC1 (stereo not drawn)
Relaxation [1]: 30% | Contraction [2]: inactive

COC(=O)[C@@H]1C[C@@H](O)CN1
Relaxation [1]: 30% | Contraction [2]: inactive

CCOP(=O)(OCC)C(c1cc(OC)c(O)c(OC)c1)N1CCOCC1 (stereo not drawn)
Contraction [2]: inactive | Relaxation [3]: 50%

Cc1cccc(C(C#N)N2CCOCC2)c1 (stereo not drawn)
Relaxation [1]: 30% | Contraction [2]: inactive

N#CCN1CCCCC1
Contraction [2]: inactive

CN1CCN(CCC#N)CC1
Relaxation [11]: inactive | Contraction [2]: inactive

C=CCN1CCN(C)CC1
Relaxation [1]: 30%

COc1cc(C(C#N)N2CCN(C)CC2)cc(OC)c1OC (stereo not drawn)
Contraction [2]: inactive | Relaxation [6]: > 50%

COc1cc(C(C#N)N2CCN(C)CC2)c([N+](=O)[O-])cc1OC (stereo not drawn)
Contraction [2]: inactive | Relaxation [6]: > 50%

CN1CCN(C(C#N)c2ccc3c(c2)OCO3)CC1 (stereo not drawn)
Relaxation [1]: 30% | Contraction [2]: inactive

N#CC(c1ccco1)N1CCOCC1 (stereo not drawn)
Contraction [2]: inactive | Relaxation [10]: 10%

CCOP(=O)(OCC)C(c1cc(OC)c(O)c(OC)c1)N1CCN(c2ccccn2)CC1.Cl (stereo not drawn)
Relaxation [4]: 14.2% | Relaxation [5]: 84% | Contraction [2]: inactive | Relaxation [6]: > 50% | Relaxation [7]: 5.7% | Relaxation [8]: 26.2% | Relaxation [9]: 82.6%

Cc1ccccc1C(C#N)N1CCN(C)CC1 (stereo not drawn)
Contraction [2]: inactive | Relaxation [10]: 10%

CN1CCN(CCC(N)=O)CC1
Relaxation [11]: inactive | Contraction [2]: inactive

N#CCCN1CCCCC1
Relaxation [11]: inactive | Contraction [2]: inactive

CN1CCN(C(C#N)c2ccco2)CC1 (stereo not drawn)
Contraction [2]: inactive | Relaxation [10]: 10%

O=C1CN2CCC1CC2
Relaxation [11]: inactive | Contraction [2]: inactive

CN1CCN(C(C#N)c2ccc(F)cc2)CC1 (stereo not drawn)
Contraction [2]: inactive | Relaxation [3]: 50%

O=C(CCN1CCOCC1)c1ccc([N+](=O)[O-])cc1
Relaxation [1]: 30% | Contraction [2]: inactive

CCOC(=O)CN1CCN(C)CC1
Relaxation [1]: 30% | Contraction [2]: inactive

N#CC(c1ccccc1F)N1CCOCC1 (stereo not drawn)
Relaxation [1]: 30% | Contraction [2]: inactive

Cc1ccc(C(C#N)N2CCOCC2)cc1 (stereo not drawn)
Relaxation [1]: 30% | Contraction [2]: inactive

N#CC1CN(Cc2ccccc2)CCN1Cc1ccccc1 (stereo not drawn)
Relaxation [1]: 30% | Contraction [2]: inactive

N#CC(c1c(F)cccc1Cl)N1CCOCC1 (stereo not drawn)
Contraction [2]: inactive | Relaxation [10]: 10%

CCOP(=O)(OCC)C(c1ccc(O)cc1)N1CCN(C)CC1 (stereo not drawn)
Relaxation [1]: 30% | Contraction [2]: inactive

N#CCN1CCOCC1
Contraction [2]: inactive | Relaxation [3]: 50%

CCOP(=O)(OCC)C(c1cc([N+](=O)[O-])ccc1O)N1CCN(C)CC1 (stereo not drawn)
Relaxation [1]: 30% | Contraction [2]: inactive

CCOP(=O)(OCC)C(c1ccc(O)c(OC)c1)N1CCOCC1 (stereo not drawn)
Relaxation [1]: 30% | Contraction [2]: inactive

COC(=O)CCCCN1CCOCC1
Contraction [2]: inactive | Relaxation [3]: 50%

C#CCN1CCOCC1
Relaxation [11]: inactive | Contraction [2]: inactive

NC(=O)CCN1CCOCC1
Relaxation [11]: inactive | Contraction [2]: inactive

CCOP(=O)(OCC)C(c1cc(OC)c(O)c(OC)c1)N1CCN(C)CC1 (stereo not drawn)
Relaxation [1]: 30% | Contraction [2]: inactive

CCOP(=O)(OCC)C(c1cc(Br)cc(Br)c1O)N1CCN(c2ccccn2)CC1 (stereo not drawn)
Relaxation [1]: 30% | Contraction [2]: inactive

CN1CCN(C(C#N)c2cc3c(cc2Cl)OCO3)CC1 (stereo not drawn)
Contraction [2]: inactive | Relaxation [10]: 10%

CN1CCN(CC(=O)Nc2c(Cl)cccc2Cl)CC1
Contraction [2]: inactive | Relaxation [10]: 10%

N#CC(NCc1ccccc1)c1ccco1 (stereo not drawn)
Contraction [2]: inactive | Relaxation [10]: 10%

CNC(=O)CCN1CCCCC1
Relaxation [11]: inactive | Contraction [2]: inactive

COC(=O)CCN1CCN(C)CC1
Relaxation [11]: inactive | Contraction [2]: inactive

COC(=O)CCCN1CCOCC1
Relaxation [11]: inactive | Contraction [2]: inactive

CCOP(=O)(OCC)C(c1cc(Cl)cc(Cl)c1O)N1CCN(c2ccccn2)CC1 (stereo not drawn)
Contraction [2]: inactive | Relaxation [6]: > 50%

CNC(=O)CCN1CCOCC1
Relaxation [11]: inactive | Contraction [2]: inactive

CN1C2CC=C(C(N)=O)C1CC2 (stereo not drawn)
Relaxation [1]: 30% | Contraction [2]: inactive

CC(=O)OCC[N+](C)(C)C [ACETYLCHOLINE]
Relaxation [12]: 65.9% | Relaxation [13]: 32.2%
